We go through 22 compounds from ChEMBL document CHEMBL5352454, “Design, synthesis, and evaluation of tricyclic compounds containing phenyl-tetrazole as XOR inhibitors” (Eur J Med Chem, 2023).

In assay [1] the target is T1, Xanthine dehydrogenase/oxidase (Homo sapiens, UniProt P47989). Kind of assay: Inhibition of XOR (unknown origin) using xanthine as substrate at 10 uM incubated for 3 mins followed by xanthine addition by spectroscopy based analysis relative to control. Particulars: 0.05 h.
In assay [2] the target is T1, Xanthine dehydrogenase/oxidase. Kind of assay: Inhibition of XOR (unknown origin) using xanthine as substrate incubated for 3 mins followed by xanthine addition by spectroscopy based analysis.
The subject of assay [3] is Mus musculus. Kind of assay: Hypouricemic activity in hypoxanthine/potassium oxonate-induced hyperuricemia mouse model assessed as reduction in serum uric acid level at 5 mg/kg, IG measured upto 9 hrs. The format is functional, organism-based.
Assay [4] deals with Mus musculus. Kind of assay: Hypouricemic activity in hypoxanthine/potassium oxonate-induced hyperuricemia mouse model assessed as reduction in uric acid level at 5 mg/kg, IG measured after 3 to 5 hrs. Particulars: time 3-5 hrs. The format is functional, organism-based.
Assay [5] deals with Mus musculus. Put plainly: Hypouricemic activity in hypoxanthine/potassium oxonate-induced hyperuricemia mouse model assessed as reduction in uric acid level at 5 mg/kg, IG measured after 3 hrs. The format is functional, organism-based.

SMILES strings stand for the structures. Active and inactive are the calls of the source. The calls are words filed in the database; no cut-off is given here.

T1 sequence (P47989 whole entry): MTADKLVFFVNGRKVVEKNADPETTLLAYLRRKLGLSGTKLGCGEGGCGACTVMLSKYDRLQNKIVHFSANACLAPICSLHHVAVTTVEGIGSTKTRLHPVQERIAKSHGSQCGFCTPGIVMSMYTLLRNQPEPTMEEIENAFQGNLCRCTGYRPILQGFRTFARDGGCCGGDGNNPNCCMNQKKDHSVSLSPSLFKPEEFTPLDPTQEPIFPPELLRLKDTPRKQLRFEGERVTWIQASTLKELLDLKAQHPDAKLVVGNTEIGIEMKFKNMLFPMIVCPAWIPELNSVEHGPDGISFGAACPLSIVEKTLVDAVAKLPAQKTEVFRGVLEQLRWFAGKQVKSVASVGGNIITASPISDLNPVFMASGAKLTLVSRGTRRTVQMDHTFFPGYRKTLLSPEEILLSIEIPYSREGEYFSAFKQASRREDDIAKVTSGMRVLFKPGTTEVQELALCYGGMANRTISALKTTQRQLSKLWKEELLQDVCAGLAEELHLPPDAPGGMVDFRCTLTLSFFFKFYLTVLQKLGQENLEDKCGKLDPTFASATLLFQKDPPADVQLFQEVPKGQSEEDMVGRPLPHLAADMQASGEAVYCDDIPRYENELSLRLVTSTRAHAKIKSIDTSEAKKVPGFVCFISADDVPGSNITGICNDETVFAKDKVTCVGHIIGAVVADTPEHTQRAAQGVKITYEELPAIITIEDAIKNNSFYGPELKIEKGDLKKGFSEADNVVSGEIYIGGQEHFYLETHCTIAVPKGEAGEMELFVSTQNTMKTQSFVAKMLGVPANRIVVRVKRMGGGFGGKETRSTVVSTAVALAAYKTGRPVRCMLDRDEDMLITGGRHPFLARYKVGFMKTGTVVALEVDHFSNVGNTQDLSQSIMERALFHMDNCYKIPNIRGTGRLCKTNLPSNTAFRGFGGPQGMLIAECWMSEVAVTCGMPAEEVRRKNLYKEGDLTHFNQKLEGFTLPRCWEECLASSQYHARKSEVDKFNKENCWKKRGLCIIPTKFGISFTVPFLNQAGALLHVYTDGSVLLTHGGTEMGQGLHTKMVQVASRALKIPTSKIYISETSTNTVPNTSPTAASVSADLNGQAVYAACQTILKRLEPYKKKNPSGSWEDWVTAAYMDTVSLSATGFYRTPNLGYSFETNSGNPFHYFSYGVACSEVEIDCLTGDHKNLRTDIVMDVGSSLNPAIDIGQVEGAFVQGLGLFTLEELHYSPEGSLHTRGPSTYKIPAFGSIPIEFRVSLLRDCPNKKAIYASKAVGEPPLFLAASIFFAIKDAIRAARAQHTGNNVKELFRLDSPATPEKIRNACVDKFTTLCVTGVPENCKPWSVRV

Take `CCOc1ccccc1-c1ccc(-c2nnn[nH]2)cc1`: the inhibition (in general, the share of the control response that was lost under treatment) at 10 µM in assay [1] was under 50%.
`COc1ccccc1-c1ccc(-c2nnn[nH]2)cc1`: half-maximal inhibition in assay [2] (IC50) was put at 1.69 µM.
Same read-out and setting: under `O=Cc1cc(Cl)ccc1-c1ccc(-c2nnn[nH]2)cc1` stands 0.54 µM; under `COc1cccc(-c2ccc(-c3nnn[nH]3)cc2)c1`, 2.09 µM.
In the case of `O=C(Nc1ccc(Cl)cc1)c1ccc(-c2nnn[nH]2)cc1`, the result in assay [3] and in assay [4] was Active. The IC50 (usually the concentration at which inhibition is half-maximal) in assay [2] was determined as 0.0263 µM.
In the case of `CC(=O)c1ccc(-c2ccc(-c3nnn[nH]3)cc2)cc1`, in assay [2], the IC50 came to 0.18 µM.
Regarding `c1cc(-c2ccc(-c3nnn[nH]3)cc2)n[nH]1`, the inhibition at 10 µM in assay [1] is under 50%.
On to `CCCOc1ccc(NC(=O)c2ccc(-c3nnn[nH]3)cc2)cc1`, for which it took 0.16 µM to reach half-maximal inhibition in assay [2] (IC50).
In assay [1], `c1cc(-c2ccc(-c3nnn[nH]3)cc2)co1` returned an inhibition at 10 µM of under 50%.
Compound `O=C(O)c1ccc(-c2ccc(-c3nnn[nH]3)cc2)cc1Cl` yielded an IC50 in assay [2] of 0.41 µM.
Still for that read-out and setting: the same measure for `O=Cc1ccccc1-c1ccc(-c2nnn[nH]2)cc1`: 0.49 µM; for `c1ncc(-c2ccc(-c3nnn[nH]3)cc2)cn1`: 0.92 µM; for `CCOc1ccc(CNC(=O)c2ccc(-c3nnn[nH]3)cc2)cc1`: 0.37 µM.
`COc1ccc(NC(=O)c2ccc(-c3nnn[nH]3)cc2)cc1` showed a 50% inhibitory concentration (IC50) in assay [2] of 0.04 µM.
In assay [2], `Cc1nc(-c2ccc(OCC(C)C)c(C#N)c2)sc1C(=O)O` [FEBUXOSTAT] displayed a concentration for half-maximal inhibition (IC50) of 0.00691 µM. Further, the result in assay [5] was Active.
`CC(C)(C)c1ccc(-c2ccc(-c3nnn[nH]3)cc2)cc1` came in with an IC50 in assay [2] of 4.23 µM.
Same read-out and setting: under `CCOc1ccc(-c2ccc(-c3nnn[nH]3)cc2)cc1` stands 0.44 µM.
Regarding `CC(C)Oc1ccc(NC(=O)c2ccc(-c3nnn[nH]3)cc2)cc1`, the outcome in assay [3] and in assay [4] was Active. In addition, half-maximal inhibition in assay [2] (IC50) was put at 0.055 µM.
In assay [1], `c1cc(-c2ccc(-c3nnn[nH]3)cc2)cs1` came in with an inhibition at 10 µM of under 50%.
As to `CCOc1ccc(NC(=O)c2ccc(-c3nnn[nH]3)cc2)cc1`, the outcome in assay [3] and in assay [4] was Active. Besides, in assay [2], inhibition was half-maximal at 0.0293 µM (IC50).
In assay [2], `O=C(O)c1cc(-c2ccc(-c3nnn[nH]3)cc2)ccc1Cl` gave an IC50 of 0.72 µM.
Still for that read-out and setting: the same measure for `COc1ccc(-c2ccc(-c3nnn[nH]3)cc2)cc1`: 1.39 µM.
